# Where a name gives a salt, the structure may show the parent alone. Read-outs that look alike come from different tables or passages of the source.
# Experiments:
# mixed bacterial inoculum [1] = settings: for preservative efficacy (in words) / potentiation of the cationic compounds (in words): AIRFLEX 410; for Inoculations Passed: AIRFLEX 410 VAE polymer; for potentiation of the cationic compounds (in words): other metal chelating agent with cationic compound
# From the text: (§1) Aeromonas hydrophilia, Alcaligenes faecalis, Corynebacterium ammoniagenes, Enterobacter aerogenes, Escherichia coli, Klebsiella pneumoniae, Pseudomonas aeruginosa, Proteus vulgaris, Providencia rettgeri, Pseudomonas stutzeri, Shewanella putrefaciens, Serratia liquefaciens, Acinetobacter baumannii, Burkholderia cepacia, Chryseobacterium meningosepticum, Sphingobacterium spiritivorum, Ralstonia pickettii, and Gluconoacetobacter liquefaciens.
# (§2) Each bacterial culture was individually grown on nutrient agar slants, except GABL was grown on potato dextrose agar slants, by inoculating the agar surfaces. The nutrient agar slants were incubated for 24-48 hours at 30° C. and the potato dextrose agar slants were incubated for 48-72 hours at 25° C. […] The washings from all of the slants were combined into one sterile, Erlenmeyer flask.
# (§3) Rapid Automated Bacterial Impedance Technique (RABIT), supplied by Microbiology International, and manufactured by Don Whitley Scientific, Ltd. utilizes the principal of impedance microbiology to detect and assess microbial activity in a given sample. Using the RABIT, microbial metabolism is monitored by measuring the amount of carbon dioxide produced by actively respiring microorganisms. The electrodes in the RABIT test cells are partially covered with alkaline agar containing potassium hydroxide. As inoculated test samples are monitored on the RABIT, carbon dioxide produced from microbial metabolism is absorbed by the alkaline agar resulting in a change in conductivity. Conductivity is monitored with time and the time to reach a pre-specified rate of reduction in conductivity is termed the time to detection (TTD). Therefore, the shorter the TTD, the higher the number of microorganisms present. Failure can be defined as three successive decreases in conductivity equal to or greater than a pre-specified value (−10 microSiemens is recommended by the manufacturer) at any time during the 72 hour RABIT monitoring period. Alternatively, failure can be defined as a pre-specified total change in conductivity.
# (§4) Samples (50 g each) of each test emulsion containing a test antimicrobial agent were inoculated with 1.0 mL of the mixed bacterial inoculum. After mixing well, the samples were then placed in a 30° C. incubator. After 1, 2, and 6 days of incubation, each sample was streak plated onto nutrient agar and potato dextrose agar to assess the level of surviving microorganisms. The nutrient agar plates were incubated at 30° C. for 48 hours before assessing the growth. […] On the seventh day of incubation, each test emulsion sample was inoculated again with a freshly prepared mixed bacterial inoculum, mixed well, then placed back into the incubator. The samples were again streak plated onto nutrient agar and potato dextrose agar after incubating for 1, 2, and 6 days since the second inoculation. On the fourteenth day after the test was initiated, the test emulsions were inoculated a third time with another freshly prepared mixed bacterial inoculum and then placed back into the incubator. The samples were again streak plated onto nutrient agar and potato dextrose agar after 1, 2, 6, and 13 days of incubation since the third inoculation to assess surviving microorganisms. Test failure is defined as a microbial viable count >300 CFU/10 μL observed from the nutrient agar or potato dextrose agar streak plate assessments.
# A small amount of a microbial nutrient (typically yeast extract) was added to each emulsion test sample (50 g) containing a test antimicrobial agent. The resulting samples were then inoculated with 1.0 mL of the mixed bacterial inoculum. After mixing well, an aliquot (5 g) of each test sample was placed into separate RABIT indirect conductivity tubes. The indirect conductivity tubes were then placed into the RABIT incubator modules set at 30° C. and the conductivity changes monitored for up to 72 hours. The remainder of each test sample was stored in a 30° C. incubator during the RABIT monitoring period.
# yeasts and molds = assay: Fungal biochallenge test in Airflex 410 VAE polymer emulsion; settings: for Growth on PDA / Surface Fungal Growth: 200 ppm; for Growth on PDA: streak plate after 28 days incubation; for Surface Fungal Growth: visual after 28 days at 25° C.
# mixed bacterial inoculum [2] = settings: for preservative efficacy (in words) / potentiation of the cationic compounds (in words): AIRFLEX 192; for Inoculations Passed: AIRFLEX 192 VAE polymer; for potentiation of the cationic compounds (in words): other metal chelating agent with cationic compound
# From the text: The following procedure was used to assess the preservative efficacy of several cationic compounds in an anionic surfactant stabilized VAE copolymer emulsion containing less than 1000 ppm vinyl acetate monomer:
# as §1, §2, §3, §4
# A small amount of a microbial nutrient (typically yeast extract) was added to each emulsion test sample (50 g) containing a test antimicrobial agent. The resulting samples were then inoculated with 1.0 mL of the mixed bacterial inoculum. After mixing well, an aliquot (5 g) of each test sample was placed into separate RABIT indirect conductivity tubes.
# [3] = cationic compound alone, dosage of 300 ppm or similar dosages
# [4] = biocide dosage 300 ppm active ingredient
# [5] = metal chelating agent by itself
# [6] = biocide dosage 1000 ppm active ingredient
structure (smiles),measurement,setting,value
"CCCCCCCCCC[N+](C)(C)CCCCCCCCCC.[Cl-] [BTC 1010, Didecyldimethylammonium chloride]",preservative efficacy (in words),mixed bacterial inoculum [1]; [3],no preservative efficacy
same,Inoculations Passed,mixed bacterial inoculum [1]; [4],0
same,Growth on PDA,yeasts and molds,Dense
same,Surface Fungal Growth,yeasts and molds,Moderate Growth
same,preservative efficacy (in words),mixed bacterial inoculum [2]; [3],no preservative efficacy
same,Inoculations Passed,mixed bacterial inoculum [2]; [4],0
"CCCCCCCCCCCCCCCC[n+]1ccccc1 [CPC, cetylpyridinium chloride]",Inoculations Passed,mixed bacterial inoculum [1]; [4],0
same,Inoculations Passed,mixed bacterial inoculum [2]; [4],0
"O=C(O)CC(O)(CC(=O)O)C(=O)O [Citric acid, sodium salt]",potentiation of the cationic compounds (in words),mixed bacterial inoculum [1],do not exhibit potentiation
same,potentiation of the cationic compounds (in words),mixed bacterial inoculum [2],do not exhibit potentiation
same,Inoculations Passed,mixed bacterial inoculum [2]; [4],0
"CCCCCCCCCCCCNC(=N)N.Cl [DGH, n-dodecylguanidine hydrochloride]",Inoculations Passed,mixed bacterial inoculum [1]; [4],0
same,Inoculations Passed,mixed bacterial inoculum [2]; biocide dosage 400 ppm active ingredient,0
"O=C([O-])CN(CCN(CC(=O)[O-])CC(=O)[O-])CC(=O)[O-].[Na+].[Na+].[Na+].[Na+] [EDTA salt, tetrasodium salt of ethylenediamine tetraacetic acid]",preservative efficacy (in words),mixed bacterial inoculum [1]; [5],inadequate
same,Inoculations Passed,mixed bacterial inoculum [1]; [6],0
same,Growth on PDA,yeasts and molds,Dense
same,Surface Fungal Growth,yeasts and molds,Slight Growth
same,protection against the growth of yeasts and molds (in words),yeasts and molds; used by itself,no protection
same,preservative efficacy (in words),mixed bacterial inoculum [2]; [5],inadequate
same,Inoculations Passed,mixed bacterial inoculum [2]; [6],0
"O=C(O)/C=C\C(=O)O [Maleic acid, sodium salt]",potentiation of the cationic compounds (in words),mixed bacterial inoculum [1],do not exhibit potentiation
same,potentiation of the cationic compounds (in words),mixed bacterial inoculum [2],do not exhibit potentiation
same,Inoculations Passed,mixed bacterial inoculum [2]; [4],0
"O=C([O-])c1ccccc1O.[Na+] [Salicylic acid, sodium salt]",Inoculations Passed,mixed bacterial inoculum [2]; [4],0
O=P([O-])([O-])[O-].[Na+].[Na+].[Na+] [Trisodium phosphate],Inoculations Passed,mixed bacterial inoculum [2]; [4],0
